From ChEMBL document CHEMBL1201862, “PubChem BioAssay data set” (2004)
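Growth conditions: 96-well plates. Treatment: test compound, 48 hours, 5 concentrations. Analysis: linear interpolation between bracketing concentrations; unreached endpoints set to highest concentration. GI50 marks 50% less growth.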 The source made the active and inactive calls. Rule as the data show it: active = GI50 up to about 1.1 µM and inactive = higher.

Key:
Assay in all cases: inhibition of tumour cell growth, NCI panel, 48 h
786-0 = system: 786-0
CAKI-1 = system: CAKI-1
HCT-15 = system: HCT-15
HOP-92 = system: HOP-92
IGROV-1 = system: IGROV-1
M14 = system: M14
MOLT-4 = system: MOLT-4
NCI-H23 = system: NCI-H23
NCI-H460 = system: NCI-H460
OVCAR-4 = system: OVCAR-4
OVCAR-5 = system: OVCAR-5
RXF 393 = system: RXF 393
SF-295 = system: SF-295
SK-OV-3 = system: SK-OV-3
A498 = system: A498

Question: Which results are given for Nc1ccc(C(=O)NN2C(=O)C(Cl)C2c2ccccc2Cl)cc1 (configuration not stated)?
Answer: GI50 (786-0): 1.69 µM (inactive); GI50 (CAKI-1): 13.9 µM (inactive); GI50 (HCT-15): 3.01 µM; GI50 (HOP-92): 4.48 µM (inactive); GI50 (IGROV-1): 13.4 µM (inactive); GI50 (M14): 13.1 µM (inactive); GI50 (MOLT-4): 1.59 µM (inactive); GI50 (NCI-H23): 12.3 µM (inactive); GI50 (NCI-H460): 4.45 µM (inactive); GI50 (OVCAR-4): 13.8 µM (inactive); GI50 (OVCAR-5): 15.2 µM (inactive); GI50 (RXF 393): 5.48 µM (inactive); GI50 (SF-295): 2.95 µM (inactive); GI50 (SK-OV-3): 16.1 µM (inactive)

Question: Which results are given for CC1(C)OC(=S)N(c2ccccc2)C12C=Cc1cc3ccccc3nc1S2 (configuration not stated)?
Answer: GI50 (786-0): > 100 µM (inactive); GI50 (HCT-15): > 100 µM; GI50 (HOP-92): 40.3 µM (inactive); GI50 (IGROV-1): > 100 µM (inactive); GI50 (M14): > 100 µM (inactive); GI50 (MOLT-4): 26.9 µM (inactive); GI50 (NCI-H23): 29.6 µM (inactive); GI50 (NCI-H460): 84.9 µM (inactive); GI50 (OVCAR-5): > 100 µM (inactive); GI50 (RXF 393): 55.6 µM (inactive); GI50 (SK-OV-3): > 100 µM (inactive)

Question: For Cc1ccc(-c2nnc(-c3nn(-c4ccccc4)c4nc5ccccc5nc34)o2)cc1, which GI50 (786-0) is on record?
Answer: The GI50 was 9.93 µM (inactive).

Question: What about the GI50 (CAKI-1) of the same compound?
Answer: Its GI50 is 11.7 µM (inactive).

Question: And the GI50 (HCT-15)?
Answer: Its GI50 is 21.4 µM.

Question: And the GI50 (HOP-92)?
Answer: Its GI50 is 7.52 µM (inactive).

Question: What about the GI50 (IGROV-1) of the same compound?
Answer: Its GI50 is 17.6 µM (inactive).

Question: What about the GI50 (M14) of the same compound?
Answer: Its GI50 is 25.8 µM (inactive).

Question: And the GI50 (MOLT-4)?
Answer: Its GI50 is 16 µM (inactive).

Question: And the GI50 (NCI-H23)?
Answer: The GI50 was 14 µM (inactive).

Question: What about the GI50 (NCI-H460) of the same compound?
Answer: The GI50 was 9.04 µM (inactive).

Question: And the GI50 (OVCAR-4)?
Answer: The GI50 was 3.01 µM (inactive).

Question: And the GI50 (OVCAR-5)?
Answer: Its GI50 is > 100 µM (inactive).

Question: What about the GI50 (RXF 393) of the same compound?
Answer: Its GI50 is 6.05 µM (inactive).

Question: What about the GI50 (SF-295) of the same compound?
Answer: The GI50 was 15.6 µM (inactive).

Question: And the GI50 (SK-OV-3)?
Answer: The GI50 was 10.8 µM (inactive).

Question: Which results are given for Cc1cc(=O)c2c(O)cc3c(c2o1)CC=C(COC1OC(COC2OC(CO)C(O)C(O)C2O)C(O)C(O)C1O)CO3 (configuration not stated)?
Answer: GI50 (786-0): > 100 µM (inactive); GI50 (CAKI-1): > 100 µM (inactive); GI50 (HCT-15): > 100 µM; GI50 (HOP-92): > 100 µM (inactive); GI50 (IGROV-1): > 100 µM (inactive); GI50 (M14): > 100 µM (inactive); GI50 (MOLT-4): > 100 µM (inactive); GI50 (NCI-H23): > 100 µM (inactive); GI50 (NCI-H460): > 100 µM (inactive); GI50 (OVCAR-4): > 100 µM (inactive); GI50 (OVCAR-5): > 100 µM (inactive); GI50 (SF-295): > 100 µM (inactive); GI50 (SK-OV-3): > 100 µM (inactive)

Question: For CCOc1cccc2ccc[n+](CC)c12, which GI50 (786-0) is on record?
Answer: The GI50 was > 100 µM (inactive).

Question: What about the GI50 (HOP-92) of the same compound?
Answer: The GI50 was 61 µM (inactive).

Question: And the GI50 (IGROV-1)?
Answer: Its GI50 is > 100 µM (inactive).

Question: And the GI50 (M14)?
Answer: The GI50 was > 100 µM (inactive).

Question: And the GI50 (MOLT-4)?
Answer: The GI50 was > 100 µM (inactive).

Question: And the GI50 (NCI-H23)?
Answer: The GI50 was 15.9 µM (inactive).

Question: What about the GI50 (NCI-H460) of the same compound?
Answer: The GI50 was 75.7 µM (inactive).

Question: What about the GI50 (OVCAR-4) of the same compound?
Answer: The GI50 was 55.1 µM (inactive).

Question: What about the GI50 (OVCAR-5) of the same compound?
Answer: The GI50 was > 100 µM (inactive).

Question: What about the GI50 (RXF 393) of the same compound?
Answer: Its GI50 is > 100 µM (inactive).

Question: What about the GI50 (SF-295) of the same compound?
Answer: Its GI50 is 45.7 µM (inactive).

Question: And the GI50 (SK-OV-3)?
Answer: The GI50 was > 100 µM (inactive).

Question: How did the GI50 (786-0) turn out when CC(=O)c1cccc(NCn2nnc3ccccc32)c1 was run?
Answer: Its GI50 is > 100 µM (inactive).

Question: What about the GI50 (A498) of the same compound?
Answer: Its GI50 is > 100 µM (inactive).

Question: What about the GI50 (HCT-15) of the same compound?
Answer: The GI50 was over 100 µM.

Question: What about the GI50 (HOP-92) of the same compound?
Answer: Its GI50 is > 100 µM (inactive).

Question: What about the GI50 (IGROV-1) of the same compound?
Answer: The GI50 was > 100 µM (inactive).

Question: And the GI50 (M14)?
Answer: The GI50 was > 100 µM (inactive).

Question: And the GI50 (MOLT-4)?
Answer: The GI50 was > 100 µM (inactive).

Question: And the GI50 (NCI-H23)?
Answer: Its GI50 is > 100 µM (inactive).

Question: And the GI50 (NCI-H460)?
Answer: The GI50 was > 100 µM (inactive).

Question: What about the GI50 (OVCAR-4) of the same compound?
Answer: Its GI50 is > 100 µM (inactive).

Question: What about the GI50 (RXF 393) of the same compound?
Answer: Its GI50 is > 100 µM (inactive).

Question: What about the GI50 (SF-295) of the same compound?
Answer: Its GI50 is > 100 µM (inactive).

Question: What about the GI50 (SK-OV-3) of the same compound?
Answer: Its GI50 is > 100 µM (inactive).

Question: What does the source list for O=C(O)CSc1nnc(Cc2ccccc2)[nH]1?
Answer: GI50 (786-0): > 100 µM (inactive); GI50 (CAKI-1): > 100 µM (inactive); GI50 (HCT-15): > 100 µM; GI50 (HOP-92): > 100 µM (inactive); GI50 (IGROV-1): > 100 µM (inactive); GI50 (M14): > 100 µM (inactive); GI50 (MOLT-4): > 100 µM (inactive); GI50 (NCI-H23): > 100 µM (inactive); GI50 (NCI-H460): > 100 µM (inactive); GI50 (OVCAR-4): > 100 µM (inactive); GI50 (OVCAR-5): > 100 µM (inactive); GI50 (RXF 393): > 100 µM (inactive); GI50 (SF-295): > 100 µM (inactive); GI50 (SK-OV-3): > 100 µM (inactive)

Question: COc1ccc2c3c1C(=O)CCC3CO2 (configuration not stated) was tested. Which GI50 (786-0) did it give?
Answer: The GI50 was > 100 µM (inactive).

Question: What about the GI50 (A498) of the same compound?
Answer: The GI50 was > 100 µM (inactive).

Question: And the GI50 (CAKI-1)?
Answer: The GI50 was > 100 µM (inactive).

Question: What about the GI50 (HCT-15) of the same compound?
Answer: Its GI50 is over 100 µM.

Question: And the GI50 (HOP-92)?
Answer: Its GI50 is > 100 µM (inactive).

Question: And the GI50 (IGROV-1)?
Answer: Its GI50 is > 100 µM (inactive).

Question: And the GI50 (M14)?
Answer: Its GI50 is > 100 µM (inactive).

Question: What about the GI50 (MOLT-4) of the same compound?
Answer: The GI50 was > 100 µM (inactive).

Question: And the GI50 (NCI-H23)?
Answer: Its GI50 is > 100 µM (inactive).

Question: And the GI50 (NCI-H460)?
Answer: Its GI50 is > 100 µM (inactive).

Question: What about the GI50 (OVCAR-4) of the same compound?
Answer: Its GI50 is > 100 µM (inactive).

Question: What about the GI50 (OVCAR-5) of the same compound?
Answer: The GI50 was > 100 µM (inactive).

Question: And the GI50 (SF-295)?
Answer: The GI50 was > 100 µM (inactive).

Question: What about the GI50 (SK-OV-3) of the same compound?
Answer: The GI50 was > 100 µM (inactive).

Question: What does the source list for Cn1cnc([N+](=O)[O-])c1SC1=NCCS1?
Answer: GI50 (786-0): > 100 µM (inactive); GI50 (A498): > 100 µM (inactive); GI50 (CAKI-1): > 100 µM (inactive); GI50 (HOP-92): 37.4 µM (inactive); GI50 (IGROV-1): > 100 µM (inactive); GI50 (M14): 48 µM (inactive); GI50 (MOLT-4): 25.6 µM (inactive); GI50 (NCI-H23): 81.1 µM (inactive); GI50 (NCI-H460): > 100 µM (inactive); GI50 (OVCAR-4): 89.9 µM (inactive); GI50 (OVCAR-5): > 100 µM (inactive); GI50 (SF-295): > 100 µM (inactive); GI50 (SK-OV-3): > 100 µM (inactive)

Question: With COC(OC)c1cccc2c1C1(O)CCC3(CC21)OCCCCO3 (configuration not stated) as the compound, how does the GI50 (786-0) read?
Answer: The GI50 was > 100 µM (inactive).

Question: What about the GI50 (A498) of the same compound?
Answer: The GI50 was > 100 µM (inactive).

Question: And the GI50 (CAKI-1)?
Answer: The GI50 was > 100 µM (inactive).

Question: And the GI50 (HCT-15)?
Answer: The GI50 was over 100 µM.

Question: And the GI50 (IGROV-1)?
Answer: The GI50 was > 100 µM (inactive).

Question: And the GI50 (M14)?
Answer: The GI50 was > 100 µM (inactive).

Question: And the GI50 (MOLT-4)?
Answer: Its GI50 is > 100 µM (inactive).

Question: What about the GI50 (NCI-H23) of the same compound?
Answer: Its GI50 is > 100 µM (inactive).

Question: What about the GI50 (NCI-H460) of the same compound?
Answer: Its GI50 is > 100 µM (inactive).

Question: What about the GI50 (OVCAR-4) of the same compound?
Answer: Its GI50 is > 100 µM (inactive).

Question: And the GI50 (OVCAR-5)?
Answer: Its GI50 is > 100 µM (inactive).

Question: And the GI50 (RXF 393)?
Answer: The GI50 was > 100 µM (inactive).

Question: What about the GI50 (SF-295) of the same compound?
Answer: Its GI50 is > 100 µM (inactive).

Question: And the GI50 (SK-OV-3)?
Answer: Its GI50 is > 100 µM (inactive).
